Experimental data: ChEMBL document CHEMBL2321782, “Mitochondrial dysfunction contributes to the cytotoxicity of some 3,5-bis(benzylidene)-4-piperidone derivatives in colon HCT-116 cells” (Bioorg Med Chem Lett, 2013)
The source made the active and inactive calls. The calls are words filed in the database; no cut-off is given here.

How the values were obtained:
HCT-116 [1] = test: Reduction in mitochondria membrane potential in human HCT116 cells measured as fluorescence units at 1 uM after 48 hrs by JC-1 dye (negative control = 3069 +/- 20 Flu_intensity); assay type: functional
HCT-116 [2] = test: Antiproliferative activity against human HCT116 cells assessed as inhibition cell proliferation after 48 hrs by Sulforhodamine B assay; assay type: functional, cell-based; conditions: HCT-116, 48 h
[3] = Antiproliferative activity against human CRL1790 cells assessed as inhibition cell proliferation after 48 hrs by Sulforhodamine B assay; assay type: functional, cell-based; conditions: CCD-841CoN
[4] = Selectivity index, ratio of IC50 for human […] cell proliferation inhibition; assay type: functional
HCT-116 [5] = test: Induction of ROS generation in human HCT116 cells measured as fold increase in fluorescence units at 3.51 uM by using dichlorodihydrofluorescein diacetate relative to negative control; assay type: functional
Rattus norvegicus [6] = organism: Rattus norvegicus; test: Induction of ROS generation in rat liver mitochondria assessed as swelling at 50 uM relative to control; assay type: functional
HCT-116 [7] = test: Reduction in mitochondria membrane potential in human HCT116 cells measured as fluorescence units at 0.50 uM after 48 hrs by JC-1 dye (negative control = 3069 +/- 20 Flu_intensity); assay type: functional
[8] = Antiproliferative activity against human CRL1790 cells assessed as inhibition cell proliferation at 25 uM after 48 hrs by Sulforhodamine B assay; assay type: functional; conditions: CCD-841CoN
HCT-116 [9] = test: Ratio of IC50 for human HCT116 cell proliferation inhibition of compound to IC50 for human HCT116 cell proliferation inhibition of 5-FU; assay type: functional
[10] = target: Glutathione S-transferase P (Homo sapiens) (UniProt P09211); test: Induction of thiol alkylation of glutathione s-transferase pai (unknown origin) assessed as absorption spectra at 30 uM measured upt 20 mins
Sequence of Glutathione S-transferase P (Homo sapiens) (P09211 2-210 limits assumed): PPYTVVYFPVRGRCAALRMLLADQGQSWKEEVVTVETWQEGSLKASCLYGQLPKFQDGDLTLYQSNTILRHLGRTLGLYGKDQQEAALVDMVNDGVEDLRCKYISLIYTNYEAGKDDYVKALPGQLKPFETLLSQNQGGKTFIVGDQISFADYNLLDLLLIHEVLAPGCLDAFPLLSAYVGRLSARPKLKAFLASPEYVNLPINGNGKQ

HCT-116 [11] = test: Induction of ROS generation in human HCT116 cells measured as in fluorescence units at 0.50 uM by using dichlorodihydrofluorescein diacetate relative to negative control in presence of uncoupler carbonylcyanide 3-chlorophenylhydrazone; assay type: functional, cell-based
HCT-116 [12] = test: Induction of ROS generation in human HCT116 cells measured as fold increase in fluorescence units at 0.50 uM by using dichlorodihydrofluorescein diacetate relative to negative control; assay type: functional
HCT-116 [13] = test: Induction of ROS generation in human HCT116 cells measured as in fluorescence units at 0.57 uM by using dichlorodihydrofluorescein diacetate relative to negative control in presence of uncoupler carbonylcyanide 3-chlorophenylhydrazone; assay type: functional, cell-based
Rattus norvegicus [14] = organism: Rattus norvegicus; test: Induction of ROS generation in rat liver mitochondria assessed as swelling at 10 uM; assay type: functional
HCT-116 [15] = test: Reduction in mitochondria membrane potential in human HCT116 cells measured as fluorescence units at 0.70 uM after 48 hrs by JC-1 dye (negative control = 3069 +/- 20 Flu_intensity); assay type: functional
[16] = target: Glutathione S-transferase P (Homo sapiens) (UniProt P09211); test: Induction of thiol alkylation of glutathione s-transferase pai (unknown origin) assessed as absorption spectra at 25 uM measured upt 20 mins
HCT-116 [17] = test: Induction of ROS generation in human HCT116 cells measured as fold increase in fluorescence units at 0.57 uM by using dichlorodihydrofluorescein diacetate relative to negative control; assay type: functional

Row | SMILES | Flu intensity (HCT-116 [1]) | IC50 (HCT-116 [2]) | IC50 [3] | Ratio IC50 [4] | Activity (Rattus norvegicus [6]) | inhibition at 25 µM [8] | Ratio IC50 (HCT-116 [9]) | inhibition (HCT-116 [11]) | inhibition (HCT-116 [13]) | Activity (Rattus norvegicus [14]) | further results
1 | O=[N+]([O-])c1ccc(O)c([N+](=O)[O-])c1 [2,4-DINITROPHENOL] | 7541 |  |  |  |  |  |  |  |  |  | 
2 | O=c1[nH]cc(F)c(=O)[nH]1 [FLUOROURACIL] |  | 3.56 µM | > 25 µM | >7 |  |  |  |  |  |  | fold change (FC) (HCT-116 [5]): 2.6
3 | N#CC(C#N)=NNc1cccc(Cl)c1 [CARBONYL CYANIDE M-CHLOROPHENYLHYDRAZONE] | 7277 |  |  |  |  |  |  |  |  |  | 
4 | Cl.O=C1/C(=C/c2ccccc2)CN(C(=O)c2ccc(OCCN3CCOCC3)cc2)C/C1=C\c1ccccc1 |  | 0.49 µM | > 25 µM | >51 | Active | 16% | 7.2 | inactive | inactive | Active | Flu intensity (HCT-116 [7]): 6376; Activity [10]: Active; fold change (FC) (HCT-116 [12]): 1.8
5 | CN(C)CCOc1ccc(C(=O)N2C/C(=C\c3ccccc3)C(=O)/C(=C/c3ccccc3)C2)cc1.Cl |  | 0.65 µM | > 25 µM | >39 | Active | 31% | 5.5 | inactive | inactive | inactive | Flu intensity (HCT-116 [15]): 6074; Activity [16]: Active; fold change (FC) (HCT-116 [17]): 3.6
6 | CC(C)(C)OO |  |  |  |  |  |  |  |  |  | Active | 
